How the values were obtained:
Tg2576 mice = assay: Acute oral dosing of Tg2576 mice, brain soluble Aβ after 4 hours; type: in vivo, mouse
Experimental: FIG. 2. Aβ modulating agents can inhibit Aβ aggregation, and agents that bind Aβ amyloid can modulate Aβ42 production. […] (C) Aβ42 modulating agents inhibit naturally secreted oligomer formation. 7PA2 cells were treated with fenofibrate, FT-1, or FT-9 at 50 μM and oligomers assessed by IP Western blotting. […] (D) FT-9, an Aβ42 reducing agent, can inhibit Aβ42 aggregation in vitro.
FIG. 13. Compounds that bind Aβ are GSMs in vitro and in vivo. (A) A cell-based screen of Aβ-binders identified molecules that increase Aβ42 (DAPH) or decrease Aβ42 (Bis-ANS, X-34 or chrysamine G (CG)). Data are mean±s.e.m., n=3. (B) X-34 is an Aβ42-lowering GSM. Changes in amyloid-β peptide amounts after X-34 treatment are shown. Data are presented as percentage control±s.e.m., n=3. EC50 values were calculated. […] NA, not applicable. (C) X-34 binds to APP(C100)-Flag and decreases labeling by GSM photoprobes. Biotin incorporation into APP by Fen-B and Flurbi-BpB is presented as percentage of control (peptide without X-34)±s.e.m., n=2. (D) X-34 lowers Aβ42 in Tg2576 mice after 4 h. […] Data are presented as amyloid-β percentage of control relative to vehicle±s.e.m. Animals per group (n). Asterisk, P,0.05; two asterisks, P,0.01; ANOVA with Dunnett's post-hoc analysis.
(§1) Finally, X-34 was tested for its ability to modulate Aβ42 amounts in an APP transgenic mouse (Tg2576).

Aβ(1-42) = Aβ(1-42) (Homo sapiens, UniProt P05067); assay: Fluorescence titration and saturation binding of Aβ(1-42) with X-34
Experimental: Fluorescence titration and saturation binding of Aβ(1-42) with X-34. Incremental increases in fluorescence (ΔF) when Aβ(1-42) was included at the indicated total concentrations of X-34 were fitted to eq. 1.
as §1

H4 APPwt cells = assay: Immunoprecipitation-mass spectrometry of media from H4 APPwt cells; type: cell-based, human
Experimental: FIG. 14. Amyloid binding compounds alter the cleavage of Aβ similar to other established γ-secretase modulators Immunoprecipitation-mass spectrometry studies were conducted on media from H4 APPwt cells grown in the presence of test compounds for 16 hours. Conditions were: control (DMSO, 0.5%), sulindac sulfide (SS; 25 μM), chrysamine g (CG; 25 μM), and X-34 (25 μM). SS was included as a control GSM known to reduce Aβ42 and increase Aβ38. Spectra shown are representative of two experiments with 2-3 replicates each. Identified Aβ peptides based on calculated mass (m/z) are indicated above the peaks.

APP-NOTCH TMD cells = assay: Aβ modulation in APP-NOTCH TMD cells; type: cell-based, human; conditions: APP-NOTCH TMD line
Experimental: (A) and (B) The sequences of wildtype (WT; A) APP and the mutated substrate (B) containing the homologous region (italic, underlined) of the NOTCH transmembrane domain (TMD) in APP where GSMs are hypothesized to bind. […] Bottom row, FT-1 ([…]) raised Aβ42 200% in APP wild-type cells (A); however, in APP-NOTCH TMD cells (B), FT-1 caused minimal changes in the Aβ42 (95%) or Aβ40 (90%) signal. Data are presented as amyloid-β percentage of control±s.e.m., n=3.
FIG. 19. Substitution of human Notch sequence in the APP transmembrane domain (TMD) changes sensitivity to modulation. (A) Site-directed mutagenesis was used to exchange the analogous region of the human Notch TMD (bold and underlined) for a section (bold and underlined) of wild-type APP (APPwt) we have shown to be labeled by GSMs. The new substrate (APP-Notch TMD) is cleaved by γ-secretase primarily after valine and alanine residues corresponding to 40 and 42 in APPwt (arrows). […] The beginning (1) N-terminal amino acid (AA) to the ending C-terminal AA is shown above each peak, with the molecular weight (m/z) below. 1-40 and 1-42 are detected as the two major species in APP-Notch TMD conditioned media. It should be noted that the mutagenesis strategy to create APPNotch TMD led to a single AA deletion relative to APPwt. The correct change in molecular weight caused by the introduced mutations were confirmed by the mass spectrum. For simplicity the peptides are referenced by their C-terminal residues relative to Aβ (40, 42, etc). Representative mass spectra are shown from multiple IP reactions (3) and duplicate spots. […] Both cell lines were treated (6 hours) with L-685,458 (10 μM), which is hypothesized to target the active site aspartate residues, media was collected, and analyzed for changes in Aβ levels. The 40 and 42 Aβ reactive species from both cell lines were inhibited by L-685,458 with equal sensitivity (no significant difference; 40 p>0.5; 42 p>0.4; t test; n=3).
To test the hypothesis that mutation of the GSM binding site in APP should alter sensitivity to GSMs, a portion of the GSM binding site in APP was exchanged with the analogous region of human NOTCH (FIGS. 18A and 18B; FIG. 19). The chimeric construct was used because the NOTCH transmembrane domain (TMD) appears resistant to GSM effects. The APP NOTCH TMD construct produced a spectrum of chimeric amyloid-β species in conditioned cell media (FIG. 19). Although the molecular weight and abundance of each chimeric peptide differed from amyloid-β peptides from APP, the main species produced from the APP-NOTCH TMD construct had identical C-termini to Ab1-40 and Ab1-42, and could be quantified by enzyme-linked immunosorbent assays (ELISAs; FIG. 19). The relative sensitivity to GSMs of APP-NOTCH TMD versus APP was assayed in stably transfected cells. […]

Sequence of Aβ(1-42) (P05067 672-713 limits assumed): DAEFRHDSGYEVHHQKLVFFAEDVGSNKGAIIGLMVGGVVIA

O=C(O)c1cc(C=Cc2ccc(C=Cc3ccc(O)c(C(=O)O)c3)cc2)ccc1O [X-34, 1,4-bis(3-carboxy-4-hydroxyphenylethenyl)-benzene]
Aβ40 in the brains (Tg2576 mice; 100 mg kg21, Tg2576 mice, 4 h): no effects
decrease of soluble Aβ42 in the brains (Tg2576 mice; 100 mg kg21, Tg2576 mice, 4 h): 35%
selectivity of Aβ reduction (Aβ42 vs Aβ40) (Tg2576 mice; Tg2576, oral gavage, 4 hours): selective reductions of Aβ42
Kd (Aβ(1-42)): 12.1 ± 4.7 µM
shorter amyloid-β (IP-MS) (H4 APPwt cells): increased amounts of shorter amyloid-β
Aβ33 levels (IP-MS) (H4 APPwt cells; 25 μM, 16 hours): raise Aβ33 levels more effectively than SS
levels of Aβ42 (IP-MS) (H4 APPwt cells; 25 μM, 16 hours): consistently decrease levels of Aβ42
Aβ40 or Aβ42 concentrations (APP-NOTCH TMD cells): did not change either Aβ40 or Aβ42 concentrations
